Data on 23 molecules can be found in patent publication US10689414B2 (Agios Pharmaceuticals, Inc., priority 2013, dated 2020).

In the assay the test system is U87MG cells. Nature of the assay: Cellular assay, inhibition of 2-HG production in U87MG cells. The class given is cell-based. The note with it: Homo sapiens, U-87 MG, 48 h. The protocol:
Cells (HT1080 or U87MG) are grown in T125 flasks in DMEM containing 10% FBS, 1× penicillin/streptomycin and 500 ug/mL G418 (present in U87MG cells only). They are harvested by trypsin and seeded into 96 well white bottom plates at a density of 5000 cell/well in 100 ul/well in DMEM with 10% FBS. […] Cells are incubated overnight at 37° C. in 5% CO2. The next day test compounds are made up at 2× the final concentration and 100 ul are added to each cell well. The final concentration of DMSO is 0.2% and the DMSO control wells are plated in row G. The plates are then placed in the incubator for 48 hours. […] The cell plate is placed back in the incubator for another 24 hours. At 72 hours post compound addition, 10 mL/plate of Promega Cell Titer Glo reagent is thawed and mixed. The cell plate is removed from the incubator and allowed to equilibrate to room temperature. Then 100 ul of Promega Cell Titer Glo reagent is added to each well of media. The cell plate is then placed on an orbital shaker for 10 minutes and then allowed to sit at room temperature for 20 minutes. The plate is then read for luminescence with an integration time of 500 ms.

In the case of `N#Cc1ccnc(N2C(=O)CC[C@H]2C(=O)N(c2cc(F)cc(F)c2)[C@H](C(=O)NC2CCC(F)(F)CC2)c2ccccc2Cl)c1` [Compound 81, (2S)—N-(1-(2-Chlorophenyl)-2-(4,4-difluorocyclohexylamino)-2-oxoethyl)-1-(4-cyanopyridin-2-yl)-N-(3,5-difluorophenyl)-5-oxopyrrolidine-2-carboxamide], the IC50 – broadly, the concentration that inhibits the measured activity by half – is less than 100 nM.
The value for `N#Cc1ccnc(N2C(=O)CC[C@H]2C(=O)N(c2cc(F)cc(F)c2)C(C(=O)NC2CC(F)(F)C2)c2cccc(Cl)c2Cl)c1` (stereo partly drawn) [Compound 195, (2S)-1-(4-Cyanopyridin-2-yl)-N-(1-(2,3-dichlorophenyl)-2-(3,3-difluoro-cyclobutylamino)-2-oxoethyl)-N-(3,5-difluorophenyl)-5-oxopyrrolidine-2-carboxamide] was less than 100 nM.
Take `N#Cc1ccnc(N2C(=O)CC[C@H]2C(=O)N(c2cccc(C3CC3)c2)[C@H](C(=O)NC2CC(F)(F)C2)c2ccccc2Cl)n1` [Compound 182, (S)—N—((S)-1-(2-Chlorophenyl)-2-((3,3-difluorocyclobutyl)amino)-2-oxoethyl)-1-(4-cyanopyri-midin-2-yl)-N-(3-cyclopropylphenyl)-5-oxopyrrolidine-2-carboxamide]: the IC50 is less than 100 nM.
The molecule `CS(=O)(=O)c1cc(F)cc(N(C(=O)[C@@H]2CCC(=O)N2c2nccc(C#N)n2)[C@H](C(=O)NC2CCC(F)(F)CC2)c2ccccc2Cl)c1` [Compound 168, (S)—N—((S)-1-(2-Chlorophenyl)-2-((4,4-difluorocyclohexyl)amino)-2-oxoethyl)-1-(4-cyanopyrimidin-2-yl)-N-(3-fluoro-5-(methylsulfonyl)phenyl)-5-oxopyrrolidine-2-carboxamide] showed an IC50 of less than 100 nM.
The value for `CN(C)c1cccc(N(C(=O)[C@@H]2CCC(=O)N2c2cc(C#N)ccn2)[C@H](C(=O)NC2CC(F)(F)C2)c2ccccc2Cl)c1` [Compound 161, (S)—N—((S)-1-(2-Chlorophenyl)-2-(3,3-difluorocyclobutylamino)-2-oxoethyl)-1-(4-cyanopyri-din-2-yl)-N-(3-(dimethylamino)phenyl)-5-oxopyrrolidine-2-carboxamide] was less than 100 nM; that for `CS(=O)(=O)c1cccc(N(C(=O)[C@@H]2CCC(=O)N2c2nccc(C#N)n2)[C@H](C(=O)NC2CCC(F)(F)CC2)c2ccccc2Cl)c1` [Compound 103, (S)—N—((S)-1-(2C)-2-((4,4-difluorocyclohexyl)amino)-2-oxoethyl)-1-(4-cyanopyrimidin-2-yl)-N-(3-(methylsulfonyl)phenyl)-5-oxopyrrolidine-2-carboxamide] was 100 to 500 nM; that for `N#Cc1ccnc(N2C(=O)OCC[C@H]2C(=O)N(c2cncc(F)c2)[C@H](C(=O)NC2CCC(F)(F)CC2)c2ccccc2Cl)c1` [Compound 137, (S)—N—((S)-1-(2-Chlorophenyl)-2-((4,4-difluorocyclohexyl)amino)-2-oxoethyl)-3-(4-cyano-pyridin-2-yl)-N-(5-fluoropyridin-3-yl)-2-oxo-1,3-oxazinane-4-carboxamide] was less than 100 nM.
For the molecule `N#Cc1ccnc(N2C(=O)CC[C@H]2C(=O)N(c2cncc(F)c2)[C@H](C(=O)NC2CC(F)(F)C2)c2ccccc2Cl)c1` [Compound 176, (S)—N—((S)-1-(2-Chlorophenyl)-2-(3,3-difluorocyclobutylamino)-2-oxoethyl)-1-(4-cyanopyridin-2-yl)-N-(5-fluoropyridin-3-yl)-5-oxopyrrolidine-2-carboxamide], the IC50 was less than 100 nM.
Consider `CC(C)(O)c1cc(F)cc(N(C(=O)[C@@H]2COC(=O)N2c2cc(C#N)ccn2)C(C(=O)NC2CC(F)(F)C2)c2ccccc2Cl)c1` (mixture of isomers) [Compound 145, (4S)—N-(1-(2-Chlorophenyl)-2-(3,3-difluorocyclobutylamino)-2-oxoethyl)-3-(4-cyanopyridin-2-yl)-N-(3-fluoro-5-(2-hydroxypropan-2-yl)phenyl)-2-oxooxazolidine-4-carboxamide], for which the IC50 is less than 100 nM.
The value for `O=C(NC1CC(F)(F)C1)[C@H](c1ccccc1Cl)N(C(=O)[C@@H]1CCC(=O)N1c1nccs1)c1cccc(F)c1` [Compound 14] was 100 to 500 nM; that for `N#Cc1ccnc(N2C(=O)CC[C@H]2C(=O)N(c2cc(F)cc(F)c2)[C@H](C(=O)NC2CC(F)(F)C2)c2cc(Cl)ccc2Cl)c1` [Compound 201, (S)-1-(4-Cyanopyridin-2-yl)-N—((S)-1-(2,5-dichlorophenyl)-2-((3,3-difluorocyclobutyl)-amino)-2-oxoethyl)-N-(3,5-difluorophenyl)-5-oxopyrrolidine-2-carboxamide] was less than 100 nM.
For the molecule `CS(=O)(=O)c1cccc(N(C(=O)[C@@H]2CCC(=O)N2c2nccc(C#N)n2)C(C(=O)NC2CC(F)(F)C2)c2ccccc2Cl)c1` (mixture of isomers) [Compound 102, (2S)—N-(1-(2-Chlorophenyl)-2-((3,3-difluorocyclobutyl)amino)-2-oxoethyl)-1-(4-cyanopyrimidin-2-yl)-N-(3-(methylsulfonyl)phenyl)-5-oxopyrrolidine-2-carboxamide], the IC50 was in the range of 100 to 500 nM.
The result for `CC(C)(C)OC(=O)N1CC(=O)N(c2cc(C#N)ccn2)[C@H](C(=O)N(c2cccc(F)c2)[C@H](C(=O)NC2CC(F)(F)C2)c2ccccc2Cl)C1` [Compound 89, (3S)-tert-Butyl 3-((1-(2-chlorophenyl)-2-((3,3-difluorocyclobutyl)amino)-2-oxoethyl)(3-fluorophenyl)carbamoyl)-4-(4-cyanopyridin-2-yl)-5-oxopiperazine-1-carboxylate] reads less than 100 nM; that for `N#Cc1ccnc(N2C(=O)CC[C@H]2C(=O)N(c2cccc(OC(F)(F)F)c2)C(C(=O)NC2CC(F)(F)C2)c2ccccc2Cl)n1` (stereo partly drawn) [Compound 180, (2S)—N-(1-(2-Chlorophenyl)-2-((3,3-difluorocyclobutyl)amino)-2-oxoethyl)-1-(4-cyanopyrimidin-2-yl)-5-oxo-N-(3-(trifluoromethoxy)phenyl)pyrrolidine-2-carboxamide], less than 100 nM; that for `N#Cc1ccnc(N2C(=O)CN(C3CC3)C[C@H]2C(=O)N(c2cc(F)cc(F)c2)[C@H](C(=O)NC2CC(F)(F)C2)c2ccccc2Cl)c1` [Compound 106, (S)—N—((S)-1-(2-chlorophenyl)-2-((3,3-difluorocyclobutyl)amino)-2-oxoethyl)-1-(4-cyanopyridin-2-yl)-4-cyclopropyl-N-(3,5-difluorophenyl)-6-oxopiperazine-2-carboxamide], less than 100 nM.
The result for `N#Cc1ccnc(N2C(=O)CC[C@H]2C(=O)N(c2cncc(F)c2)[C@H](C(=O)NC2CC(F)(F)C2)c2ccccc2F)c1` [Compound 148, (S)-1-(4-Cyanopyridin-2-yl)-N—((S)-2-((3,3-difluorocyclobutyl)amino)-1-(2-fluorophenyl)-2-oxoethyl)-N-(5-fluoropyridin-3-yl)-5-oxopyrrolidine-2-carboxamide] reads less than 100 nM; that for `CC(C)(C)OC(=O)N1CC(=O)N(c2nccc(C#N)n2)[C@H](C(=O)N(c2cc(F)cc(F)c2)[C@H](C(=O)NC2CCC(F)(F)CC2)c2ccccc2Cl)C1` [Compound 93, (S)-tert-Butyl 3-(((S)-1-(2-chlorophenyl)-2-((4,4-difluorocyclohexyl)amino)-2-oxoethyl)(3,5-difluorophenyl)carbamoyl)-4-(4-cyanopyrimidin-2-yl)-5-oxopiperazine-1-carboxylate], less than 100 nM; that for `CN1CC(=O)N(c2cc(C#N)ccn2)[C@H](C(=O)N(c2cc(F)cc(F)c2)[C@H](C(=O)NC2CC(F)(F)C2)c2ccccc2Cl)C1` [Compound 101, (S)—N—((S)-1-(2-chlorophenyl)-2-((3,3-difluorocyclobutyl)amino)-2-oxoethyl)-1-(4-cyanopyridin-2-yl)-N-(3,5-difluorophenyl)-4-methyl-6-oxopiperazine-2-carboxamide], less than 100 nM.
Take `O=C(NC1CC(F)(F)C1)[C@H](c1ccccc1Cl)N(C(=O)[C@@H]1CCC(=O)N1c1ccc(F)cn1)c1cccc(F)c1` [Compound 29]: the IC50 is less than 100 nM.
Consider `N#Cc1cc(F)cc(N(C(=O)[C@@H]2CCC(=O)N2c2cc(C#N)ccn2)[C@H](C(=O)NC2CC(F)(F)C2)c2ccccc2F)c1` [Compound 207, (S)—N-(3-Cyano-5-fluorophenyl)-1-(4-cyanopyridin-2-yl)-N—((S)-2-((3,3-difluorocyclobutyl)amino)-1-(2-fluorophenyl)-2-oxoethyl)-5-oxopyrrolidine-2-carboxamide], for which the IC50 was less than 100 nM.
The value for `N#Cc1ccnc(N2C(=O)OC[C@H]2C(=O)N(c2cccc(F)c2)[C@H](C(=O)NC2CC(F)(F)C2)c2ccccc2Cl)c1` [Compound 77, (S)—N—((S)-1-(2-Chlorophenyl)-2-(3,3-difluorocyclobutylamino)-2-oxoethyl)-3-(4-cyanopyri-din-2-yl)-N-(3-fluorophenyl)-2-oxooxazolidine-4-carboxamide] was less than 100 nM; that for `N#Cc1ccnc(N2C(=O)CC[C@H]2C(=O)N(c2cc(F)cc(F)c2)[C@H](C(=O)NC2CC(F)(F)C2)c2ccccc2Cl)n1` [Compound 86, (S)—N—((S)-1-(2-Chlorophenyl)-2-((3,3-difluorocyclobutyl)amino)-2-oxoethyl)-1-(4-cyanopyrimidin-2-yl)-N-(3,5-difluorophenyl)-5-oxopyrrolidine-2-carboxamide] was less than 100 nM; that for `N#Cc1ccc(N2C(=O)CC[C@H]2C(=O)N(c2cccc(F)c2)[C@H](C(=O)NC2CC(F)(F)C2)c2ccccc2Cl)nc1` [Compound 47] was 100 to 500 nM.
